Patent publication US8933074B2, “1,2-disubstituted heterocyclic compounds” (FORUM Pharmaceuticals Inc., priority 2008, dated 2015)

Assays:
Human PDE10A1 = Human PDE10A1 (Homo sapiens, UniProt Q9Y233); assay: hPDE10A1 enzyme inhibition; type: biochemical; details: [3H]-cAMP substrate, 20 minutes at 37° C.; read-out: hPDE10A1 IC50 Band
Experimental: 50 μl samples of serially diluted Human PDE10A1 enzyme were incubated with 50 μl of [^3H]-cAMP for 20 minutes (at 37° C.). Reactions were carried out in Greiner 96 deep well 1 ml master-block. The enzyme was diluted in 20 mM Tris HCl pH7.4 and [^3H]-cAMP was diluted in 10 mM MgCl2, 40 mM Tris.HCl pH 7.4. The reaction was terminated by denaturing the PDE enzyme (at 70° C.) after which [^3H]-5′-AMP was converted to [^3H]-adenosine by adding 25 μl snake venom nucleotidase and incubating for 10 minutes (at 37° C.). Adenosine, being neutral, was separated from charged cAMP or AMP by the addition of 200 μl Dowex resin. Samples were shaken for 20 minutes then centrifuged for 3 minutes at 2,500 r.p.m. 50 μl of supernatant was removed and added to 200 μl of MicroScint-20 in white plates (Greiner 96-well Optiplate) and shaken for 30 minutes before reading on Perkin Elmer TopCount Scintillation Counter.
To check inhibition profile 11 μl of serially diluted inhibitor was added to 50 μl of [^3H]-cAMP and 50 ul of diluted Human PDE10A1 and assay was carried out as in the enzyme activity assay. Data was analysed using Prism software (GraphPad Inc).

rat = details: rats; cited from earlier work

Sequence of Human PDE10A1 (Q9Y233 1-779 isoform Q9Y233-1): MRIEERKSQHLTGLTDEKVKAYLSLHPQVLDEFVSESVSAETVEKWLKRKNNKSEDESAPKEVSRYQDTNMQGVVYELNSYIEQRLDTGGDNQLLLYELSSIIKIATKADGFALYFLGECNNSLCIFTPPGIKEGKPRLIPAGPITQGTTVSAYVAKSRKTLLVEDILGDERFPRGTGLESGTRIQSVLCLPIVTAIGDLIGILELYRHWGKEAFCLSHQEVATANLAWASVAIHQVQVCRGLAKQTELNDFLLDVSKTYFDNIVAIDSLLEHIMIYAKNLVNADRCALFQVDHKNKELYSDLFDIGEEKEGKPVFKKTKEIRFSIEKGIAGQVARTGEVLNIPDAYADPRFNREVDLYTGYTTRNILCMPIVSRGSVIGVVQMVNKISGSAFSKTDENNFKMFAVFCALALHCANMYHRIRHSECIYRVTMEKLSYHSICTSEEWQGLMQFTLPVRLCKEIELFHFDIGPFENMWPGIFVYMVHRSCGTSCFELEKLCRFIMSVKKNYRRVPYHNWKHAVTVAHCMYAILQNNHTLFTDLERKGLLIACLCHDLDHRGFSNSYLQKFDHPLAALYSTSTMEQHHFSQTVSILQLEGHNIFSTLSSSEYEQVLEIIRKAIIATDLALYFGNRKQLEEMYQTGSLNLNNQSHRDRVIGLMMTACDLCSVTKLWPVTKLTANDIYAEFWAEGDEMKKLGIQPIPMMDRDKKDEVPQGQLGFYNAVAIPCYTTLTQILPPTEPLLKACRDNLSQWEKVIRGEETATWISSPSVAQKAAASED

| SMILES | IC50 (Human PDE10A1) [nM] | other results |
| --- | --- | --- |
| COc1ccc(C2=C(c3ccc(OCc4ccc5ccccc5n4)cc3)OC(C)(C)C2=O)cc1 [Example 262, 4-(4-methoxyphenyl)-2,2-dimethyl-5-(4-(quinolin-2-ylmethoxy)phenyl)furan-3(2H)-one] | ≤ 50 |  |
| Cc1ccc(COc2ccc(C3=C(c4ccncc4)OC(C)(C)C3=O)cc2)nc1 [Example 808, 2,2-dimethyl-4-(4-((5-methylpyridin-2-yl)methoxy)phenyl)-5-(pyridin-4-yl) furan-3(2H)-one] | ≤ 50 |  |
| Cc1cnc(COc2ccc(C3=C(c4ccncc4)OC(C)(C)C3=O)cc2)c(C)c1 [Example 809, 4-(4-((3,5-Dimethylpyridin-2-yl)methoxy)phenyl)-2,2-dimethyl-5-(pyridin-4-yl) furan-3(2H)-one] | ≤ 50 |  |
| CC1(C)OC(c2ccncc2)=C(c2ccc(OCc3ccc4cc(F)ccc4n3)cc2)C1=O [Example 810, 4-(4-((6-Fluoroquinolin-2-yl)methoxy)phenyl)-2,2-dimethyl-5-(pyridin-4-yl) furan-3(2H)-one] | ≤ 50 |  |
| CC1(C)OC(c2ccccc2)=C(c2ccc(OCc3ccc4ccccc4n3)cc2)C1=O [Example 811, 2,2-dimethyl-5-phenyl-4-(4-(quinolin-2-ylmethoxy)phenyl)furan-3(2H)-one] | ≤ 50 |  |
| CN1C(=O)C(c2ccc(OCc3ccc4ccccc4n3)cc2)=C(N2CCOCC2)C1=O [Example 812, 1-Methyl-3-morpholino-4-(4-(quinolin-2-ylmethoxy)phenyl)-1H-pyrrole-2,5-dione] | > 50 |  |
| CC1(C)OC(c2ccc(O)cc2)=C(c2ccc(OCc3ccc4ccccc4n3)cc2)C1=O [Example 813, 5-(4-hydroxyphenyl)-2,2-dimethyl-4-(4-(quinolin-2-ylmethoxy)phenyl)furan-3(2H)-one] | ≤ 50 |  |
| CC(=O)Nc1ccc(C2=C(c3ccc(OCc4ccc5ccccc5n4)cc3)C(=O)C(C)(C)O2)cc1 [Example 814, N-(4-(5,5-dimethyl-4-oxo-3-(4-(quinolin-2-ylmethoxy)phenyl)-4,5-dihydrofuran-2-yl)phenyl)acetamide] | ≤ 50 |  |
| CC1(C)OC(c2ccc(NS(C)(=O)=O)cc2)=C(c2ccc(OCc3ccc4ccccc4n3)cc2)C1=O [Example 815, N-(4-(5,5-dimethyl-4-oxo-3-(4-(quinolin-2-ylmethoxy)phenyl)-4,5-dihydrofuran-2-yl)phenyl)methanesulfonamide] | ≤ 50 |  |
| CC1(C)OC(c2ccc(N(S(C)(=O)=O)S(C)(=O)=O)cc2)=C(c2ccc(OCc3ccc4ccccc4n3)cc2)C1=O [Example 817, N-(4-(5,5-dimethyl-4-oxo-3-(4-(quinolin-2-ylmethoxy)phenyl)-4,5-dihydrofuran-2-yl)phenyl)-N-(methylsulfonyl)methanesulfonamide] | ≤ 50 |  |
| Cc1ccc(C2=C(c3ccc(OCc4ccc5ccccc5n4)cc3)C(=O)C(C)(C)O2)cc1 [Example 818, 2,2-dimethyl-4-(4-(quinolin-2-ylmethoxy)phenyl)-5-p-tolylfuran-3(2H)-one] | ≤ 50 |  |
| CC(=O)N(C(C)=O)c1ccc(C2=C(c3ccc(OCc4ccc5ccccc5n4)cc3)C(=O)C(C)(C)O2)cc1 [Example 819, N-acetyl-N-(4-(5,5-dimethyl-4-oxo-3-(4-(quinolin-2-ylmethoxy)phenyl)-4,5-dihydrofuran-2-yl)phenyl)acetamide] | ≤ 50 |  |
| CN1C(=O)C(c2ccc(OCc3ccc4ccccc4n3)cc2)=C(N2CCC(=O)CC2)C1=O [Example 820, 1-Methyl-3-(4-oxopiperidin-1-yl)-4-(4-(quinolin-2-ylmethoxy)phenyl)-1H-pyrrole-2,5-dione] | > 50 |  |
| CC1(C)OC(c2ccc3ocnc3c2)=C(c2ccc(OCc3ccc4ccccc4n3)cc2)C1=O [Example 821, 5-(benzo[d]oxazol-5-yl)-2,2-dimethyl-4-(4-(quinolin-2-ylmethoxy)phenyl)furan-3(2H)-one] | ≤ 50 |  |
| COc1ccc(-c2c(-c3ccc(OCc4ccc5ccccc5n4)cc3)n(C)c(=O)n2C)cc1 [Example 822, 4-(4-Methoxyphenyl)-1,3-dimethyl-5-(4-(quinolin-2-ylmethoxy)phenyl)-1H-imidazol-2(3H)-one] | > 50 |  |
| COc1ccc(C2=C(c3ccc(OCc4ccc5ccccc5n4)cc3)C(=O)NC2(C)C)cc1 [Example 823, 4-(4-methoxyphenyl)-5,5-dimethyl-3-(4-(quinolin-2-ylmethoxy)phenyl)-1H-pyrrol-2(5H)-one] | ≤ 50 |  |
| O=C1C(c2ccc(OCc3ccc4ccccc4n3)cc2)=C(c2ccncc2)OC12CCCC2 [Example 824, 2-(pyridin-4-yl)-3-(4-(quinolin-2-ylmethoxy)phenyl)-1-oxaspiro[4.4]non-2-en-4-one] | ≤ 50 |  |
| COc1ccc(Cc2nccc3cc(OC)c(OC)cc23)cc1OC [papaverine] |  | apomorphine induced stereotypes (rat): reduces; haloperidol induced catalepsy (rat): increases; rat brain dopamine levels (rat): reduces |
